A value given as a limit tells only on which side of the number the result lay.

One test deals with T1, human FAAH (Homo sapiens, UniProt O00519).
T1 construct: host or cells: COS-7 cells, transient transfection; 13,000 g membrane fraction solubilised in 1% Triton X-100
T1 sequence (O00519 1-579): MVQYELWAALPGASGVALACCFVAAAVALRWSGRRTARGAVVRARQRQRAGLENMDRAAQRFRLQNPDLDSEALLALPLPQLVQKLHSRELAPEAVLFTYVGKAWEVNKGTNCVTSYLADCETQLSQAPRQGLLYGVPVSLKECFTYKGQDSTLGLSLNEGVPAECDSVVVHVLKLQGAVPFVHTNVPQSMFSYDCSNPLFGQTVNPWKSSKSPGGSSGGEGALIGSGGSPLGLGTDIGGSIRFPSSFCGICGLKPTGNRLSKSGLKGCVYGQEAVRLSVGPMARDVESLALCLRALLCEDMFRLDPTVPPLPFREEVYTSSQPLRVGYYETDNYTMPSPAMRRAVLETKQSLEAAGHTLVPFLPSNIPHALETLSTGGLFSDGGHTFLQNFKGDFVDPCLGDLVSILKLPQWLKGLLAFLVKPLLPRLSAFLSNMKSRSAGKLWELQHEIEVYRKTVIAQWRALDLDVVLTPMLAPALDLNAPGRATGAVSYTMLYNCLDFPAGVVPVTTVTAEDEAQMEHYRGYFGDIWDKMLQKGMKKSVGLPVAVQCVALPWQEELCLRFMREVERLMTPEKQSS
Description: Human FAAH biochemical inhibition assay (AMC arachidonoyl amide fluorescence).
Conditions: not given
The protocol:
The resulting solution is added into one dish of 30-40% confluent COS-7 cells in a drop-wise manner. The COS-7 cell dish is subsequently incubated for 48 hours. The cells are then harvested.
Harvest procedure: Media was aspirated from the dishes and the cells rinsed with 10 mL PBS. The PBS was removed and 3 mLs of PBS added to the dish. The dish was scraped to resuspend the cells, and the subsequent cell suspension collected into a 15 ml conical tube. The cells were pelleted by centrifugation at 1200 rpm for 5 minutes in a bench top centrifuge. PBS was removed and the cell pellet snap frozen in liquid nitrogen, store at −80 C.
The pellets were dounce homogenized and then sonicated to produce cell extract. The cell extract was subsequently centrifuged at 1000 g to remove cellular debris. The pellet was discarded and the supernatant centrifuged at 13,000 g for 20 minutes. The pellet contained membrane bound FAAH. The supernatant was discarded and the pellet resolubilized.
(2) Re-solubilization: The fraction of interest, (13,000 g, membrane fraction) was re-suspended in re-suspension buffer (20 mM Hepes pH 7.8, 10% v/v Glycerol, 1 mM EDTA, 1% Triton X-100) (2.3 mL re-suspension and the sample incubated on ice for 1 hour and then centrifuged to at 13,000 g remove any particulate matter. The supernatant containing solubilized human FAAH was aliquoted and snap frozen in liquid nitrogen and stored at −80° C. until use.
FAAH reaction buffer: 50 mM Hepes (pH 7.5), 1 mM EDTA, 0.2% Triton X-100.
Human FAAH assay; Experimental Protocol: A 0.1 mg/mL Human FAAH solution is made up in FAAH reaction buffer, and 24 ul pipetted into a 384 well plate. To this is added 1 uL of a 3 fold serially diluted inhibitor from a DMSO stock solution. The FAAH solution and inhibitor are incubated for 30 minutes at room temperature. The FAAH reaction is initiated by the addition of 25 uL of 40 uM AMC Arachidonoyl Amide in FAAH reaction buffer, yielding a final reaction human FAAH preparation concentration of 0.05 mg/ml and AMC-Arachidonoyl substrate concentration of 20 uM, reaction volume 50 uL. The reaction is allowed to proceed for 4 hours at room temperature. […] The microtiter plate in read in the envision plate reader.
Broadly, the Ki is the equilibrium dissociation constant of an inhibitor or competing ligand from its target. `NCCOB(c1ccccc1)c1ccccc1` [Compound I-125] displayed a Ki of over 1 µM.

The test is the same for the next values; noted with them: Table 1, human FAAH (no asterisk); read-out: Activity (Ki).
For the molecule `OB(O)c1ccc(I)cc1` [Compound I-70], the Ki is 0.01 to 0.1 µM.
For the molecule `OB(O)c1ccc(Cl)c(Cl)c1` [Compound I-75], the Ki is 0.01 to 0.1 µM.
On the same count and under the same terms, to `COc1ccc(CNC(=O)Nc2ccc(B3OC(C)(C)C(C)(C)O3)cc2)cc1` [Compound I-122] belongs 0.01 to 1 µM; to `OB(O)c1ccccc1OC(F)(F)F` [Compound I-48], 0.01 to 1 µM.
Turning to `OB(O)c1ccc(N2CCOCC2)cc1` [Compound I-139], the Ki was in the range of 0.01 to 1 µM.
Take `OB(O)c1ccc2c(c1)CCO2` [Compound I-103]: the Ki is over 1 µM.
On the same count and under the same terms, as for `OB(O)c1ccc2ccccc2c1` [Compound I-178], the figure is 0.01 to 0.1 µM; as for `OB(O)c1ccc(F)c(OCC(F)(F)F)c1` [Compound I-28], 0.01 to 1 µM; as for `OB(O)c1cc2ccccc2nc1Cl` [Compound I-160], over 1 µM.
As for `O=C(NCCc1ccccc1)c1ccc(B(O)O)cc1` [Compound I-123], the Ki was under 0.01 µM.
In the case of `COc1c(Br)cc(F)cc1B(O)O` [Compound I-10], the Ki lay in the range of 0.01 to 0.1 µM.
In the case of `OB(O)C1=CCCCCC1` [Compound I-11], the Ki was over 1 µM.
In the case of `OB(O)c1ccc2c(c1)OCCO2` [Compound I-98], the inhibitory constant (Ki) fell in the range of 0.01 to 1 µM.
Same read-out and setting: to `CCCCOc1ccc(B(O)O)cc1F` [Compound I-36] belongs under 0.01 µM; to `OB(O)c1ccc(OCCn2cccn2)cc1` [Compound I-124], 0.01 to 0.1 µM; to `COc1cc(F)cc(B(O)O)c1` [Compound I-15], 0.01 to 1 µM.
For the molecule `CCOc1ccc(B(O)O)cc1` [Compound I-59], the Ki is 0.01 to 1 µM.
Regarding `OB(O)c1cc2ccccc2o1` [Compound I-176], the Ki is over 1 µM.
On to `OB(O)c1ccc(OCc2cccc(Br)c2)c(Cl)c1` [Compound I-147], for which the Ki is under 0.01 µM.
Still for that read-out and setting: as for `OB(O)c1cccc(I)c1` [Compound I-2], the figure is 0.01 to 0.1 µM; as for `CCc1ccc(B(O)O)cc1` [Compound I-57], 0.01 to 1 µM.
Same read-out and setting: to `CCCOc1c(F)c(F)c(B(O)O)c(F)c1F` [Compound I-54] belongs over 1 µM; to `OB(O)c1ccc(-c2cccs2)s1` [Compound I-135], 0.01 to 1 µM.
Turning to `OB(O)c1cccc(OCc2cccc(Cl)c2)c1` [Compound I-141], the Ki fell in the range of 0.01 to 0.1 µM.
Same read-out and setting: as for `CS(=O)(=O)c1ccc(B(O)O)cc1` [Compound I-84], the figure is 0.01 to 1 µM.

The same test, now with this note: Table 2, human FAAH (no asterisk); read-out: Activity (Ki).
On to `OB(c1ccccc1)c1ccc(Oc2ccccc2)cc1` [II-66], for which the Ki is 0.01 to 0.1 µM.
Same read-out and setting: to `CC1(C)OB(c2ccc(CNc3ccccc3)cc2)OC1(C)C` [II-154] belongs under 0.01 µM; to `CCOc1ccc(Oc2ccc(B(O)O)cc2)cc1F` [II-251], under 0.01 µM; to `CN(Cc1ccccc1)Cc1ccc(B(O)O)c(F)c1` [II-90], 0.01 to 0.1 µM.
Regarding `OB(O)c1ccc(COCc2ccccc2)c(Cl)c1` [II-43], the Ki is under 0.01 µM.
Regarding `Cc1cc(CNc2ccc(B3OC(C)(C)C(C)(C)O3)cc2)ccc1F` [II-188], the Ki was over 1 µM.
`Cc1cc(Oc2cccc(F)c2)ccc1B(O)O` [II-209]: the Ki was in the range of 0.01 to 0.1 µM.
On to `OB(O)c1ccc(Oc2cccnc2)cc1F` [II-149], for which the Ki is under 0.01 µM.
Same read-out and setting: as for `CC(C)(C)OC(=O)Nc1cccc(Oc2ccc(B(O)O)cc2)c1` [II-289], the figure is 0.01 to 0.1 µM; as for `CNc1cccc(Oc2ccc(B(O)O)c(F)c2)c1` [II-200], under 0.01 µM; as for `CCCCNC(=O)C(Oc1ccc(B(O)O)cc1)c1ccccc1` (stereo not shown) [II-218], 0.01 to 1 µM.
`O=S(=O)(Cc1ccccc1)Cc1ccc(B(O)O)c(F)c1` [II-80]: the Ki was over 1 µM.
With `OB(O)c1ccc(-c2nc3ccccc3s2)cc1` [II-36], the Ki is over 1 µM.
As to `OB(O)c1ccc(OCc2ccccc2)cc1` [II-314], the inhibition constant Ki lay within 0.01 to 0.1 µM.
Consider `Nc1ccc(CCOc2ccc(B(O)O)c(F)c2)cc1` [II-35], for which the inhibition constant Ki is under 0.01 µM.
Turning to `OB(O)c1ccc(OCCc2ccc(Cl)c(Cl)c2)cc1F` [II-62], the Ki was under 0.01 µM.
Turning to `Cc1cc(OCc2ccc(B(O)O)cc2)ccc1Cl` [II-250], the Ki is under 0.01 µM.
Turning to `OB(O)c1ccc(Oc2cc(F)c(F)c(F)c2)cc1` [II-263], the Ki is under 0.01 µM.
Regarding `O=C(c1ccccc1)c1ccc(-c2ccc(B(O)O)cc2)cc1` [II-298], the Ki was 0.01 to 0.1 µM.
For `O=C(c1cccc(Oc2ccc(B(O)O)cc2)c1)N1CCCC1` [II-226], the Ki fell in the range of 0.01 to 0.1 µM.
For `OB(O)c1ccc(CBr)cc1` [II-241], the Ki is over 1 µM.
As for `Cn1c(-c2ccc(B(O)O)cc2)nc2ccccc21` [II-41], the Ki is over 1 µM.
For `OB(O)c1ccc2oc(COc3ccccc3)cc2c1` [II-104], the inhibition constant Ki is under 0.01 µM.
In the case of `Cc1cc(Oc2ccc(B(O)O)cc2)ccc1F` [II-253], the Ki was under 0.01 µM.
Consider `OB(O)c1ccc(COCc2cc(Cl)cc(Cl)c2)cc1F` [II-48], for which the Ki is under 0.01 µM.
Take `CN(C)CCCC(=O)Nc1cccc(CCOc2ccc(B(O)O)c(F)c2)c1` [II-22]: the Ki was 0.01 to 1 µM.
In the case of `CC(Cc1ccccc1)Oc1ccc(B(O)O)c(F)c1` (stereo not shown) [II-136], the Ki was under 0.01 µM.
For `O=C(Cc1ccccc1)Nc1ccc(B(O)O)cc1` [II-248], the Ki fell in the range of 0.01 to 0.1 µM.
With `OB(O)c1ccc(CN(Cc2ccccc2)Cc2ccccc2)cc1` [II-157], the Ki lay in the range of 0.01 to 1 µM.
As for `OB(O)c1ccc(Cc2ccccc2)cc1` [II-82], the Ki is under 0.01 µM.
As to `[O-][S+](Cc1ccccc1)Cc1ccc(B(O)O)c(F)c1` (stereo not shown) [II-81], the inhibition constant Ki was 0.01 to 1 µM.
For the molecule `CC(C)NC(=O)c1cccc(Oc2ccc(B(O)O)cc2)c1` [II-225], the Ki is under 0.01 µM.
Regarding `C[C@H](COc1ccc(B(O)O)c(F)c1)c1ccccc1` [II-137], the Ki was under 0.01 µM.
Turning to `O=C(COc1ccc(B(O)O)c(F)c1)c1ccccc1` [II-140], the Ki was under 0.01 µM.
On the same count and under the same terms, to `CN(C)c1cccc(Oc2ccc(B(O)O)cc2)c1` [II-78] belongs under 0.01 µM; to `O=C(OCc1ccccc1)c1cc(Oc2cccc(F)c2)ccc1B(O)O` [II-151], 0.01 to 1 µM.
Consider `OB(O)c1ccc2sc3ccccc3c2c1` [II-31], for which the Ki is 0.01 to 1 µM.
On the same count and under the same terms, as for `Cc1ccc(Oc2ccc(B(O)O)cc2)cc1Cl` [II-276], the figure is under 0.01 µM.
On the same count and under the same terms, to `OB(c1ccccc1)c1ccccc1` [II-83] belongs over 1 µM.
Turning to `O=C(NCc1ccccc1)C(Oc1ccc(B(O)O)cc1)c1ccccc1` (stereo not shown) [II-217], the Ki was 0.01 to 1 µM.
The same measure, in the same setting: to `OB(O)c1ccc(OCCc2cccc(C(F)(F)F)c2)cc1F` [II-53] belongs under 0.01 µM; to `OB(O)c1ccc(Oc2cc(F)cc(F)c2)cc1` [II-260], under 0.01 µM.
As for `CC1(C)OB(c2ccc(OCc3cnco3)cc2F)OC1(C)C` [II-148], the Ki is 0.01 to 0.1 µM.
On to `CN(Cc1ccc(B(O)O)cc1)c1ccccc1` [II-141], for which the Ki was under 0.01 µM.
Regarding `OB(O)c1ccc2scc(COc3ccccc3)c2c1` [II-67], the Ki is over 1 µM.
Consider `Cc1cc(CSc2ccc(B(O)O)c(F)c2)ccc1F` [II-199], for which the Ki was under 0.01 µM.
Same read-out and setting: as for `OB(O)c1ccc2sccc2c1` [II-49], the figure is 0.01 to 1 µM; as for `OB(O)c1ccc(OCCCOc2ccccn2)cc1` [II-120], 0.01 to 0.1 µM.
For the molecule `COc1ccc(-c2ccc(B(O)O)cc2)cc1` [II-300], the Ki was 0.01 to 0.1 µM.
As for `OB(O)c1ccc(CCOc2ccccc2)cc1` [II-117], the Ki was 0.01 to 0.1 µM.
On to `Cc1cccc(COc2ccc(B(O)O)cc2)c1` [II-270], for which the Ki lay in the range of 0.01 to 0.1 µM.
For `O=C(NCc1ccccc1)c1cccc(Oc2ccc(B(O)O)cc2)c1` [II-221], the Ki is under 0.01 µM.
As for `Cc1ccc(Oc2ccc(B(O)O)cc2)cc1` [II-280], the Ki is under 0.01 µM.

Source of the values: patent publication US8329675B2, “Inhibitors of fatty acid amide hydrolase” (Infinity Pharmaceuticals, Inc., priority 2006, dated 2012).
